Results taken from US6642392B1 (priority 1997, dated 2003).
Read-outs that look alike come from different tables or passages of the source.

Key:
Assay type in all cases: in vivo
[1] = test system: Eiysiphe graminis f. sp. tritici; assay: Test A: wheat powdery mildew, preventive spray on wheat seedlings; settings: wheat powdery mildew
Method in brief: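 Compounds (3% acetone, 250 ppm Trem 014) sprayed to run-off on wheat seedlings, inoculated next day with spore dust. Incubated 7 days at 20° C before disease rating, 0–100% control relative to untreated controls.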

Puccinia recondita = assay: Test B: wheat leaf rust, preventive spray on wheat seedlings; settings: wheat leaf rust
Method in brief: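 Wheat seedlings were sprayed to run-off with compound (3% acetone, 250 ppm Trem 014), then inoculated with P. recondita spores the next day. They were held 24 h saturated at 20 °C, then 6 days at 20 °C. Ratings are 0–100% disease control versus controls.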

Pyricularia oryzae = settings: rice blast
Phytophthora infestans = settings: tomato late blight
Botrytis cinerea = assay: Test E: gray mold, preventive spray on cucumber seedlings; settings: gray mold on cucumber
Method in brief: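 Compounds in 3% acetone were suspended with 250 ppm Trem 014 surfactant and sprayed to run-off on cucumber seedlings. B. cinerea spores were inoculated next day, then 48 h saturated humidity at 20° C and 5 days at 20° C. Disease control rated 0–100% versus controls.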

[2] = 100 = 100% disease control, 0 = no control relative to controls, unmarked entries (standard test concentration)
[3] = 100 = 100% disease control, 0 = no control, unmarked entries (standard test concentration)

CC(COc1cc(Cl)ccc1C#N)NC(=O)C(C#N)C(C)(C)C (mixture of isomers) [compound 43]
Test A disease control rating [1, 2]: 0%
Test B disease control rating (Puccinia recondita; [3]): 0%
Test C disease control rating (Pyricularia oryzae; [3]): 86%
Test D disease control rating (Phytophthora infestans; [3]): 66%
Test E disease control rating (Botrytis cinerea; [3]): 0%

CC(COc1cc(Br)ccc1C#N)NC(=O)C(C#N)C(C)(C)C (mixture of isomers) [compound 44]
Test A disease control rating [1, 2]: 0%
Test B disease control rating (Puccinia recondita; [3]): 0%
Test C disease control rating (Pyricularia oryzae; [3]): 94%
Test D disease control rating (Phytophthora infestans; [3]): 89%
Test E disease control rating (Botrytis cinerea; [3]): 0%

CC(COc1cccc(I)c1C#N)NC(=O)C(C#N)C(C)(C)C (mixture of isomers) [compound 45]
Test A disease control rating [1, 2]: 0%
Test B disease control rating (Puccinia recondita; [3]): 0%
Test C disease control rating (Pyricularia oryzae; [3]): 86%
Test D disease control rating (Phytophthora infestans; [3]): 0%
Test E disease control rating (Botrytis cinerea; [3]): 0%

CC(COc1cc(I)ccc1C#N)NC(=O)C(C#N)C(C)(C)C (mixture of isomers) [compound 46]
Test A disease control rating [1, 2]: 0%
Test B disease control rating (Puccinia recondita; [3]): 0%
Test C disease control rating (Pyricularia oryzae; [3]): 53%
Test D disease control rating (Phytophthora infestans; [3]): 66%
Test E disease control rating (Botrytis cinerea; [3]): 0%

CC(COc1cccc(C(F)(F)F)c1C#N)NC(=O)C(C#N)C(C)(C)C (mixture of isomers) [compound 47]
Test A disease control rating [1, 2]: 0%
Test B disease control rating (Puccinia recondita; [3]): 0%
Test C disease control rating (Pyricularia oryzae; [3]): 53%
Test D disease control rating (Phytophthora infestans; [3]): 52%
Test E disease control rating (Botrytis cinerea; [3]): 0%

CC(COc1c(C#N)cccc1C(F)(F)F)NC(=O)C(C#N)C(C)(C)C (mixture of isomers) [compound 48]
Test A disease control rating [1, 2]: 0%
Test B disease control rating (Puccinia recondita; [3]): 0%
Test C disease control rating (Pyricularia oryzae; [3]): 91%
Test D disease control rating (Phytophthora infestans; [3]): 0%
Test E disease control rating (Botrytis cinerea; [3]): 0%

Cc1c(Cl)cc(C#N)n1OCC(C)NC(=O)C(C#N)C(C)(C)C (mixture of isomers) [compound 49]
Test A disease control rating [1, 2]: 0%
Test B disease control rating (Puccinia recondita; [3]): 0%
Test C disease control rating (Pyricularia oryzae; [3]): 0%
Test D disease control rating (Phytophthora infestans; [3]): 0%
Test E disease control rating (Botrytis cinerea; [3]): 0%

Cc1c(Br)cc(C#N)n1OCC(C)NC(=O)C(C#N)C(C)(C)C (mixture of isomers) [compound 50]
Test A disease control rating [1, 2]: 86%
Test B disease control rating (Puccinia recondita; [3]): 28%
Test C disease control rating (Pyricularia oryzae; [3]): 53%
Test D disease control rating (Phytophthora infestans; [3]): 57%
Test E disease control rating (Botrytis cinerea; [3]): 0%

CC(COn1c(C#N)cc(Cl)c1Cl)NC(=O)C(C#N)C(C)(C)C (mixture of isomers) [compound 51]
Test A disease control rating [1, 2]: 71%
Test B disease control rating (Puccinia recondita; [3]): 0%
Test C disease control rating (Pyricularia oryzae; [3]): 53%
Test D disease control rating (Phytophthora infestans; [3]): 68%
Test E disease control rating (Botrytis cinerea; [3]): 0%

CC(COn1c(Cl)c(Cl)c(Cl)c1C#N)NC(=O)C(C#N)C(C)(C)C (mixture of isomers) [compound 52]
Test A disease control rating [1, 2]: 71%
Test B disease control rating (Puccinia recondita; [3]): 86%
Test C disease control rating (Pyricularia oryzae; [3]): 0%
Test D disease control rating (Phytophthora infestans; [3]): 81%
Test E disease control rating (Botrytis cinerea; [3]): 0%

CC(CCn1cc(Cl)cc1C#N)NC(=O)C(C#N)C(C)(C)C (mixture of isomers) [compound 53]
Test A disease control rating [1, 2]: 0%
Test B disease control rating (Puccinia recondita; [3]): 0%
Test C disease control rating (Pyricularia oryzae; [3]): 53%
Test D disease control rating (Phytophthora infestans; [3]): 0%
Test E disease control rating (Botrytis cinerea; [3]): 0%

CC(COc1ccccc1)NC(=O)C(C#N)C(C)C(C)(C)C (mixture of isomers) [compound 56]
Test A disease control rating ([1]; tested at 40 ppm): 74%
Test B disease control rating (Puccinia recondita; tested at 40 ppm): 0%
Test C disease control rating (Pyricularia oryzae; tested at 40 ppm): 85%
Test D disease control rating (Phytophthora infestans; tested at 40 ppm): 0%
Test E disease control rating (Botrytis cinerea; tested at 40 ppm): 0%

CC(COc1ccccc1F)NC(=O)C(C#N)C(C)C(C)(C)C (mixture of isomers) [compound 57]
Test A disease control rating ([1]; tested at 40 ppm): 91%
Test B disease control rating (Puccinia recondita; tested at 40 ppm): 0%
Test C disease control rating (Pyricularia oryzae; tested at 40 ppm): 85%
Test D disease control rating (Phytophthora infestans; tested at 40 ppm): 0%
Test E disease control rating (Botrytis cinerea; tested at 40 ppm): 0%

CC(COc1ccccc1Cl)NC(=O)C(C#N)C(C)C(C)(C)C (mixture of isomers) [compound 58]
Test A disease control rating ([1]; tested at 40 ppm): 57%
Test B disease control rating (Puccinia recondita; tested at 40 ppm): 0%
Test C disease control rating (Pyricularia oryzae; tested at 40 ppm): 52%
Test D disease control rating (Phytophthora infestans; tested at 40 ppm): 0%
Test E disease control rating (Botrytis cinerea; tested at 40 ppm): 0%

CC(COc1ccccc1Br)NC(=O)C(C#N)C(C)C(C)(C)C (mixture of isomers) [compound 59]
Test A disease control rating ([1]; tested at 40 ppm): 0%
Test B disease control rating (Puccinia recondita; tested at 40 ppm): 0%
Test C disease control rating (Pyricularia oryzae; tested at 40 ppm): 52%
Test D disease control rating (Phytophthora infestans; tested at 40 ppm): 0%
Test E disease control rating (Botrytis cinerea; tested at 40 ppm): 0%

CC(COc1ccccc1C#N)NC(=O)C(C#N)C(C)C(C)(C)C (mixture of isomers) [compound 60]
Test A disease control rating ([1]; tested at 40 ppm): 91%
Test B disease control rating (Puccinia recondita; tested at 40 ppm): 0%
Test C disease control rating (Pyricularia oryzae; tested at 40 ppm): 0%
Test D disease control rating (Phytophthora infestans; tested at 40 ppm): 0%
Test E disease control rating (Botrytis cinerea; tested at 40 ppm): 0%

CC(COc1ccccc1CC#N)NC(=O)C(C#N)C(C)C(C)(C)C (mixture of isomers) [compound 61]
Test A disease control rating ([1]; tested at 40 ppm): 74%
Test B disease control rating (Puccinia recondita; tested at 40 ppm): 0%
Test C disease control rating (Pyricularia oryzae; tested at 40 ppm): 73%
Test D disease control rating (Phytophthora infestans; tested at 40 ppm): 0%
Test E disease control rating (Botrytis cinerea; tested at 40 ppm): 0%

CC(COc1cc(Cl)ccc1Cl)NC(=O)C(C#N)C(C)C(C)(C)C (mixture of isomers) [compound 62]
Test A disease control rating ([1]; tested at 40 ppm): 74%
Test B disease control rating (Puccinia recondita; tested at 40 ppm): 0%
Test C disease control rating (Pyricularia oryzae; tested at 40 ppm): 52%
Test D disease control rating (Phytophthora infestans; tested at 40 ppm): 0%
Test E disease control rating (Botrytis cinerea; tested at 40 ppm): 0%

CC(COc1cccc(F)c1C#N)NC(=O)C(C#N)C(C)C(C)(C)C (mixture of isomers) [compound 63]
Test A disease control rating [1, 2]: 0%
Test B disease control rating (Puccinia recondita; [3]): 0%
Test C disease control rating (Pyricularia oryzae; [3]): 0%
Test D disease control rating (Phytophthora infestans; [3]): 2%
Test E disease control rating (Botrytis cinerea; [3]): 0%

CC(COc1cccc(Cl)c1C#N)NC(=O)C(C#N)C(C)C(C)(C)C (mixture of isomers) [compound 64]
Test A disease control rating [1, 2]: 0%
Test B disease control rating (Puccinia recondita; [3]): 0%
Test C disease control rating (Pyricularia oryzae; [3]): 53%
Test D disease control rating (Phytophthora infestans; [3]): 2%
Test E disease control rating (Botrytis cinerea; [3]): 0%

CC(COc1cccc(I)c1C#N)NC(=O)C(C#N)C(C)C(C)(C)C (mixture of isomers) [compound 65]
Test A disease control rating [1, 2]: 0%
Test B disease control rating (Puccinia recondita; [3]): 0%
Test C disease control rating (Pyricularia oryzae; [3]): 0%
Test D disease control rating (Phytophthora infestans; [3]): 2%
Test E disease control rating (Botrytis cinerea; [3]): 0%

CC(COc1cccc(C(F)(F)F)c1C#N)NC(=O)C(C#N)C(C)C(C)(C)C (mixture of isomers) [compound 66]
Test A disease control rating [1, 2]: 0%
Test B disease control rating (Puccinia recondita; [3]): 0%
Test C disease control rating (Pyricularia oryzae; [3]): 0%
Test D disease control rating (Phytophthora infestans; [3]): 69%
Test E disease control rating (Botrytis cinerea; [3]): 0%

CC(COc1c(F)cccc1C#N)NC(=O)C(C#N)C(C)C(C)(C)C (mixture of isomers) [compound 67]
Test A disease control rating [1, 2]: 0%
Test B disease control rating (Puccinia recondita; [3]): 0%
Test C disease control rating (Pyricularia oryzae; [3]): 0%
Test D disease control rating (Phytophthora infestans; [3]): 92%
Test E disease control rating (Botrytis cinerea; [3]): 0%

CC(COc1c(C#N)cccc1C(F)(F)F)NC(=O)C(C#N)C(C)C(C)(C)C (mixture of isomers) [compound 68]
Test A disease control rating [1, 2]: 62%
Test B disease control rating (Puccinia recondita; [3]): 27%
Test C disease control rating (Pyricularia oryzae; [3]): 86%
Test D disease control rating (Phytophthora infestans; [3]): 82%
Test E disease control rating (Botrytis cinerea; [3]): 0%

CC(COc1cc(F)cc(F)c1C#N)NC(=O)C(C#N)C(C)C(C)(C)C (mixture of isomers) [compound 69]
Test A disease control rating [1, 2]: 0%
Test B disease control rating (Puccinia recondita; [3]): 0%
Test C disease control rating (Pyricularia oryzae; [3]): 53%
Test D disease control rating (Phytophthora infestans; [3]): 2%
Test E disease control rating (Botrytis cinerea; [3]): 0%

Cc1c(Br)cc(C#N)n1OCC(C)NC(=O)C(C#N)C(C)C(C)(C)C (mixture of isomers) [compound 70]
Test A disease control rating [1, 2]: 63%
Test B disease control rating (Puccinia recondita; [3]): 0%
Test C disease control rating (Pyricularia oryzae; [3]): 0%
Test D disease control rating (Phytophthora infestans; [3]): 13%
Test E disease control rating (Botrytis cinerea; [3]): 0%

Cc1c(Cl)cc(C#N)n1CCC(C)NC(=O)C(C#N)C(C)C(C)(C)C (mixture of isomers) [compound 72]
Test A disease control rating [1, 2]: 0%
Test B disease control rating (Puccinia recondita; [3]): 0%
Test C disease control rating (Pyricularia oryzae; [3]): 91%
Test D disease control rating (Phytophthora infestans; [3]): 0%
Test E disease control rating (Botrytis cinerea; [3]): 0%

Cc1c(Br)cc(C#N)n1CCC(C)NC(=O)C(C#N)C(C)C(C)(C)C (mixture of isomers) [compound 73]
Test A disease control rating [1, 2]: 30%
Test B disease control rating (Puccinia recondita; [3]): 28%
Test C disease control rating (Pyricularia oryzae; [3]): 53%
Test D disease control rating (Phytophthora infestans; [3]): 0%
Test E disease control rating (Botrytis cinerea; [3]): 11%

CC(CCn1cc(Cl)cc1C#N)NC(=O)C(C#N)C(C)C(C)(C)C (mixture of isomers) [compound 74]
Test A disease control rating [1, 2]: 0%
Test B disease control rating (Puccinia recondita; [3]): 86%
Test C disease control rating (Pyricularia oryzae; [3]): 53%
Test D disease control rating (Phytophthora infestans; [3]): 23%
Test E disease control rating (Botrytis cinerea; [3]): 0%

CC(C(C#N)C(=O)NCC=Cc1ccccc1F)C(C)(C)C (mixture of isomers) [compound 75]
Test A disease control rating ([1]; tested at 40 ppm): 0%
Test B disease control rating (Puccinia recondita; tested at 40 ppm): 0%
Test C disease control rating (Pyricularia oryzae; tested at 40 ppm): 52%
Test D disease control rating (Phytophthora infestans; tested at 40 ppm): 19%
Test E disease control rating (Botrytis cinerea; tested at 40 ppm): 0%
